Measurements taken from US11767322B2 (BRISTOL-MYERS SQUIBB COMPANY, priority 2020, dated 2023).
Read-outs that look alike come from different tables or passages of the source.

Columns and labels:
[1] = test system: MLKL phosphorylation in HT29-L23 human colorectal adenocarcinoma cells; assay: MLKL phosphorylation high-content assay; assay type: cell-based
[2] = target: T1, His-GST-TVMV-hRIPK1(1-324) (Homo sapiens, UniProt Q13546); assay: biochemical; assay type: binding
T1 construct: The coding region of human RIPK1(1-324) flanked by NdeI site at 5′ end; made in house; host or cells: Spodoptera frugiperda Sf9 insect cells (baculovirus, Bac-to-Bac)
T1 sequence (Q13546 1-324): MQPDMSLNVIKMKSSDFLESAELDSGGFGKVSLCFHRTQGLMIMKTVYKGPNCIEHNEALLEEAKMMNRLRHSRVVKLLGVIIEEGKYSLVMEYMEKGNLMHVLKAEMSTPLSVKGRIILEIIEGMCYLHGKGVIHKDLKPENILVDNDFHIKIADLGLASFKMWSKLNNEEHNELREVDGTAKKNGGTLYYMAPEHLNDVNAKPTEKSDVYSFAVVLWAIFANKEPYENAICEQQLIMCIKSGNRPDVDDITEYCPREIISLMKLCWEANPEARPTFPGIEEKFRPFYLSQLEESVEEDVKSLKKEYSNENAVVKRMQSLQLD

[3] = read-out: pMLKL IC50, HT29-L23 cells, necroptosis induced with TNFα, SMAC mimetic and Z-VAD, 6 h, maximal inhibition defined by Nec1s
[4] = HTRF probe displacement, 1 h at rt, read-out: RIPK1 IC50
[5] = Homo sapiens, 6 h, read-out: pMLKL IC50, HT29-L23 cells, necroptosis induced with TNFα, SMAC mimetic and Z-VAD, 6 h, maximal inhibition defined by Nec1s
[6] = Table 22, compounds of the present invention, read-out: RPIK1 IC50

| SMILES | IC50 [1, 3] | IC50 [2, 4] | IC50 [1, 5] | IC50 ([1]; Homo sapiens, read-out: pMLKL IC50, Table 22, compounds of the present invention) | IC50 [2, 6] | IC50 ([1]; read-out: pMLKL IC50, Table 22, compounds of the present invention) |
| --- | --- | --- | --- | --- | --- | --- |
| Nc1nc2cc(-c3ccc(Cl)c(C(=O)NCCC(O)c4ccc(C(F)(F)F)cc4)c3F)ccn2n1 (single isomer, unassigned) [Example 86, 3-(2-amino-[1,2,4]triazolo[1,5-a]pyridin-7-yl)-6-chloro-2-fluoro-N-(3-hydroxy-3-(4-(trifluoromethyl)phenyl)propyl)benzamide] | 7.5 nM | 2.2 nM | – | – | – | – |
| Cc1ccc(-c2ccn3nc(N)nc3c2)c(F)c1C(=O)NCC(F)(F)C1(c2ccc(F)cc2)COC1 [Example 246, 3-(2-amino-[1,2,4]triazolo[1,5-a]pyridin-7-yl)-N-(2,2-difluoro-2-(3-(4-fluorophenyl)oxetan-3-yl)ethyl)-2-fluoro-6-methylbenzamide] | – | 15 nM | 2.2 nM | – | – | – |
| [2H]C([2H])([2H])c1ccc(-c2ccn3nc(N)nc3c2)c(F)c1C(=O)NCC(F)(F)C(C)(O)c1ccc(F)cc1 (single isomer, unassigned) [Example 242, 3-(2-amino-[1,2,4]triazolo[1,5-a]pyridin-7-yl)-N-(2,2-difluoro-3-(4-fluorophenyl)-3-hydroxybutyl)-2-fluoro-6-(methyl-d3)benzamide] | 1 nM | 9.1 nM | – | – | – | – |
| Nc1nc2cc(-c3ccc(C(F)(F)F)c(C(=O)NCC(F)(F)[C@@H](O)c4ccc(F)cc4)c3F)ccn2n1 [Example 315, (S)-3-(2-amino-[1,2,4]triazolo[1,5-a]pyridin-7-yl)-N-(2,2-difluoro-3-(4-fluorophenyl)-3-hydroxypropyl)-2-fluoro-6-(trifluoromethyl)benzamide] | – | 6.9 nM | 0.4 nM | – | – | – |
| Cc1ccc(-c2ccn3nc(N)nc3c2)c(F)c1C(=O)NCCC(O)c1cccc(Cl)c1 (single isomer, unassigned) [Example 44, 3-(2-amino-[1,2,4]triazolo[1,5-a]pyridin-7-yl)-N-(3-(3-chlorophenyl)-3-hydroxypropyl)-2-fluoro-6-methylbenzamide] | 2.5 nM | 1.3 nM | – | – | – | – |
| CC(O)(c1ccc(F)cc1)C(F)(F)CNC(=O)c1c(Cl)ccc(-c2ccn3nc(N)nc3c2)c1F (single isomer, unassigned) [Example 88, 3-(2-amino-[1,2,4]triazolo[1,5-a]pyridin-7-yl)-6-chloro-N-(2,2-difluoro-3-(4-fluorophenyl)-3-hydroxybutyl)-2-fluorobenzamide] | – | 3.6 nM | 2.4 nM | – | – | – |
| Cc1ccc(-c2ccn3nc(N)nc3c2)c(F)c1C(=O)NCCC(O)c1ccc(F)cc1 (centres unmarked) [Example 49, 3-(2-amino-[1,2,4]triazolo[1,5-a]pyridin-7-yl)-2-fluoro-N-(3-(4-fluorophenyl)-3-hydroxypropyl)-6-methylbenzamide] | – | 2.5 nM | 2.6 nM | 2.6 nM | 2.5 nM | – |
| Cc1ccc(-c2ccn3nc(N)nc3c2)c(F)c1C(=O)NCC(C)(F)C(O)c1ccc(F)cc1 (single isomer, unassigned) [Example 204, 3-(2-amino-[1,2,4]triazolo[1,5-a]pyridin-7-yl)-2-fluoro-N-(2-fluoro-3-(4-fluorophenyl)-3-hydroxy-2-methylpropyl)-6-methylbenzamide] | 2.7 nM | 5.8 nM | – | – | – | – |
| Cc1ccc(-c2ccn3nc(N)nc3c2)c(F)c1C(=O)NCC(O)C(F)(F)c1ccc(F)cc1 (single isomer, unassigned) [Example 291, 3-(2-amino-[1,2,4]triazolo[1,5-a]pyridin-7-yl)-N-(3,3-difluoro-3-(4-fluorophenyl)-2-hydroxypropyl)-2-fluoro-6-methylbenzamide] | 2.4 nM | 1 nM | – | – | 1 nM | 2.4 nM |
| [2H]C([2H])([2H])C(O)(c1ccc(F)cc1)C(F)CNC(=O)c1c(C(F)F)ccc(-c2ccn3nc(N)nc3c2)c1F (single isomer, unassigned) [Example 196, 3-(2-amino-[1,2,4]triazolo[1,5-a]pyridin-7-yl)-6-(difluoromethyl)-2-fluoro-N-(2-fluoro-3-(4-fluorophenyl)-3-hydroxybutyl-4,4,4-d3)benzamide] | 1 nM | 14 nM | – | – | – | – |
| Nc1nc2cc(-c3ccc(Cl)c(C(=O)NCC(F)(F)C(O)c4cc(F)ccc4F)c3F)ccn2n1 (single isomer, unassigned) [Example 177, 3-(2-amino-[1,2,4]triazolo[1,5-a]pyridin-7-yl)-6-chloro-N-(3-(2,5-difluorophenyl)-2,2-difluoro-3-hydroxypropyl)-2-fluorobenzamide] | 23 nM | 1.8 nM | – | – | – | – |
| Cc1ccc(-c2ccn3nc(N)nc3c2C)c(F)c1C(=O)NCC[C@H](O)c1ccc(Cl)cc1 [compound 134] | – | 2.9 nM | 1.5 nM | – | – | – |
| [2H]C(O)(c1ccc(C(F)F)cc1)C(F)(F)CNC(=O)c1c(Cl)ccc(-c2ccn3nc(N)nc3c2)c1F (single isomer, unassigned) [Example 312, 3-(2-amino-[1,2,4]triazolo[1,5-a]pyridin-7-yl)-6-chloro-N-(3-(4-(difluoromethyl)phenyl)-2,2-difluoro-3-hydroxypropyl-3-d)-2-fluorobenzamide] | 0.9 nM | 5.7 nM | – | – | – | – |
| Cc1ccc(-c2ccn3nc(N)nc3c2)c(F)c1C(=O)NCC(F)(F)C(O)c1ccnc(C(F)(F)F)c1 (single isomer, unassigned) [Example 261, 3-(2-amino-[1,2,4]triazolo[1,5-a]pyridin-7-yl)-N-(2,2-difluoro-3-hydroxy-3-(2-(trifluoromethyl)pyridin-4-yl)propyl)-2-fluoro-6-methylbenzamide] | 79 nM | 40 nM | – | – | – | – |
| [2H]C([2H])([2H])c1ccc(-c2ccn3nc(N)nc3c2)c(F)c1C(=O)NCC(F)(F)C(C)(O)c1ccc(Cl)cc1 (single isomer, unassigned) [Example 252, 3-(2-amino-[1,2,4]triazolo[1,5-a]pyridin-7-yl)-N-(3-(4-chlorophenyl)-2,2-difluoro-3-hydroxybutyl)-2-fluoro-6-(methyl-d3)benzamide] | 2.7 nM | 7.2 nM | – | – | – | – |
| [2H]C([2H])(CC([2H])(O)c1ccc(Cl)cc1)NC(=O)c1c(Cl)ccc(-c2ccn3nc(N)nc3c2)c1F (centres unmarked) [Example 75, 3-(2-amino-[1,2,4]triazolo[1,5-a]pyridin-7-yl)-6-chloro-N-(3-(4-chlorophenyl)-3-hydroxypropyl-1,1,3-d3)-2-fluorobenzamide] | 4.3 nM | 3.2 nM | – | – | – | – |
| [2H]C([2H])([2H])c1ccc(-c2ccn3nc(N)nc3c2)c(F)c1C(=O)NCC(F)(F)C(C)(O)c1ccc(Cl)cc1 (single isomer, unassigned) [Example 253, 3-(2-amino-[1,2,4]triazolo[1,5-a]pyridin-7-yl)-N-(3-(4-chlorophenyl)-2,2-difluoro-3-hydroxybutyl)-2-fluoro-6-(methyl-d3)benzamide] | 1.2 nM | 2.4 nM | – | – | – | – |
| [2H]C([2H])([2H])c1ccc(-c2ccn3nc(N)nc3c2)c(F)c1C(=O)NCC1(C(O)c2ccc(F)cc2)CC1 (single isomer, unassigned) [Example 307, 3-(2-amino-[1,2,4]triazolo[1,5-a]pyridin-7-yl)-2-fluoro-N-((1-((4-fluorophenyl) (hydroxy)methyl)cyclopropyl)methyl)-6-(methyl-d3)benzamide] | – | 9.6 nM | 14 nM | – | – | – |
| Cc1ccc(C(O)C(F)(F)CNC(=O)c2c(Cl)ccc(-c3ccn4nc(N)nc4c3)c2F)c(F)c1 (centres unmarked) [Example 182, 3-(2-amino-[1,2,4]triazolo[1,5-a]pyridin-7-yl)-6-chloro-N-(2,2-difluoro-3-(2-fluoro-4-methylphenyl)-3-hydroxypropyl)-2-fluorobenzamide] | 2.9 nM | 1.2 nM | – | – | – | – |
| Nc1nc2cc(-c3ccc(Cl)c(C(=O)NCC(F)(F)Cc4ccc(F)cc4)c3F)ccn2n1 [Example 207, 3-(2-amino-[1,2,4]triazolo[1,5-a]pyridin-7-yl)-6-chloro-N-(2,2-difluoro-3-(4-fluorophenyl)propyl)-2-fluorobenzamide] | – | 1.8 nM | 0.6 nM | – | – | – |
| Cc1ccc(C(O)C(F)(F)CNC(=O)c2c(Cl)ccc(-c3ccn4nc(N)nc4c3)c2F)c(F)c1 (centres unmarked) [Example 183, 3-(2-amino-[1,2,4]triazolo[1,5-a]pyridin-7-yl)-6-chloro-N-(2,2-difluoro-3-(2-fluoro-4-methylphenyl)-3-hydroxypropyl)-2-fluorobenzamide] | 1 nM | 0.4 nM | – | – | – | – |
| Nc1nc2cc(-c3ccc(Cl)c(C(=O)NCC(F)(F)C(O)c4cc(Cl)ccc4F)c3F)ccn2n1 (centres unmarked) [Example 181, 3-(2-amino-[1,2,4]triazolo[1,5-a]pryidin-7-yl)-6-chloro-N-(3-(5-chloro-2-fluorophenyl)-2,2-difluoro-3-hydroxypropyl)-2-fluorobenzamide] | 0.3 nM | 1.7 nM | – | – | – | – |
| Nc1nc2cc(-c3ccc(Cl)c(C(=O)NCCC(O)c4ccc(F)cc4)c3F)ccn2n1 (single isomer, unassigned) [Example 80, 3-(2-amino-[1,2,4]triazolo[1,5-a]pyridin-7-yl)-6-chloro-2-fluoro-N-(3-(4-fluorophenyl)-3-hydroxypropyl)benzamide] | – | 9 nM | 27 nM | – | – | – |
